Results: the supplement of paper PMC4862054

How the values were obtained:
Settings in all cases: incubation time: 72 h
HCC1143 [1] = test: normalised viability (% of control), CellTiter-Blue; higher = more viable cells (about 100 = DMSO control)
Outline: (§1)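 After 72 h on compound-loaded 384-well plates, breast cancer cell lines received 2.5 µl CellTiter-Blue reagent for 2 h at 37 °C. Fluorescence at 560/590 nm was scaled per plate so that vehicle was 100 and a positive kill control was 0. The value stands for normalised viability at a single listed concentration of the series.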

DU-4475 [2] = test: as above
Outline: as §1

CAL-148 = test: as above
Outline: as §1

CAL-85-1 [3] = test: as above
Outline: as §1

BT-474 [4] = test: as above
Outline: as §1

HDQ-P1 [5] = test: as above
Outline: as §1

MDA-MB-231 [6] = test: as above
Outline: as §1

SK-BR-3 = test: as above
Outline: as §1

HCC1937 [7] = test: as above
Outline: as §1

BT-549 [8] = test: as above
Outline: as §1

MDA-MB-468 [9] = test: as above
Outline: as §1

HCC1143 [10] = test: normalised response (% of control), CellTox Green; higher = less cell death (100 = DMSO, 0 = benzethonium chloride kill control)
Outline: (§2)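 Compound was dispensed into 384-well plates at 5 concentrations in 10-fold steps spanning a 10,000-fold range specific to that compound. Breast cancer cell lines were added as 20 µl suspension and left for 72 h before CellTox Green fluorescence (485/520 nm) and then CellTiter-Glo luminescence, read after 10 min at room temperature. Each reported value is the normalised signal at one concentration, with 0.1 % DMSO set at 100 and a positive kill control at 0 on each plate.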

DU-4475 [11] = test: as above
Outline: as §2

MCF-10A = test: as above
Outline: as §2

MDA-MB-436 = test: as above
Outline: as §2

CAL-85-1 [12] = test: as above
Outline: as §2

BT-474 [13] = test: as above
Outline: as §2

HDQ-P1 [14] = test: as above
Outline: as §2

Hs578T = test: as above
Outline: as §2

MDA-MB-453 = test: as above
Outline: as §2

MDA-MB-231 [15] = test: as above
Outline: as §2

HCC1937 [16] = test: as above
Outline: as §2

MFM-223 = test: as above
Outline: as §2

CAL-51 = test: as above
Outline: as §2

CAL-120 = test: as above
Outline: as §2

BT-549 [17] = test: as above
Outline: as §2

MDA-MB-468 [18] = test: as above
Outline: as §2

CN(Cc1cnc2nc(N)nc(N)c2n1)c1ccc(C(=O)N[C@@H](CCC(=O)O)C(=O)O)cc1 [Methotrexate] gave a normalised viability (HCC1143 [1]; 10 nM) of 87.8%, a normalised viability (HCC1143 [1]; 1000 nM) of 68.9% and a normalised viability (HCC1143 [1]; 10000 nM) of 65.4%. For the same compound, the normalised viability (DU-4475 [2]; 3 nM) was 102%, the normalised viability (DU-4475 [2]; 30 nM) was 99.3% and the normalised viability (DU-4475 [2]; 100 nM) was 101%. For the same compound, the normalised viability (CAL-148; 3 nM) was 99.8%, the normalised viability (CAL-148; 30 nM) was 91.5% and the normalised viability (CAL-148; 100 nM) was 67.3%. The normalised viability (CAL-85-1 [3]; 3 nM) was 98.5%, the normalised viability (CAL-85-1 [3]; 30 nM) was 84% and the normalised viability (CAL-85-1 [3]; 100 nM) was 78%. For the same compound, the normalised viability (BT-474 [4]; 10 nM) was 115%, the normalised viability (BT-474 [4]; 1000 nM) was 118% and the normalised viability (BT-474 [4]; 10000 nM) was 128%. For the same compound, the normalised viability (HDQ-P1 [5]; 3 nM) was 108%, the normalised viability (HDQ-P1 [5]; 30 nM) was 95.5% and the normalised viability (HDQ-P1 [5]; 100 nM) was 96%. The normalised viability (MDA-MB-231 [6]; 10 nM) was 94.2%, the normalised viability (MDA-MB-231 [6]; 1000 nM) was 94.7% and the normalised viability (MDA-MB-231 [6]; 10000 nM) was 94.1%. The normalised viability (SK-BR-3; 10 nM) was 95.9%, the normalised viability (SK-BR-3; 1000 nM) was 52% and the normalised viability (SK-BR-3; 10000 nM) was 52.8%. It also gave a normalised viability (HCC1937 [7]; 10 nM) of 86.5%, a normalised viability (HCC1937 [7]; 1000 nM) of 72.1% and a normalised viability (HCC1937 [7]; 10000 nM) of 76.1%. It also gave a normalised viability (BT-549 [8]; 10 nM) of 91.4%, a normalised viability (BT-549 [8]; 1000 nM) of 78.6% and a normalised viability (BT-549 [8]; 10000 nM) of 95.7%. For the same compound, the normalised viability (MDA-MB-468 [9]; 10 nM) was 90.7%, the normalised viability (MDA-MB-468 [9]; 1000 nM) was 41.5% and the normalised viability (MDA-MB-468 [9]; 10000 nM) was 42.7%.

Cc1cc(Nc2nc(N[C@@H](C)c3ncc(F)cn3)ncc2Cl)[nH]n1 [AZD1480] (1000 nM) showed a normalised response (HCC1143 [10]) of 97.3%, a normalised response (DU-4475 [11]) of 98.2% and a normalised response (MCF-10A) of 98.9%. The normalised response (MDA-MB-436) was 105%, the normalised response (CAL-85-1 [12]) was 109% and the normalised response (BT-474 [13]) was 95.3%. The normalised response (HDQ-P1 [14]) was 69.3%, the normalised response (Hs578T) was 71.7% and the normalised response (MDA-MB-453) was 105%. It also gave a normalised response (MDA-MB-231 [15]) of 76.7%, a normalised response (HCC1937 [16]) of 69.3% and a normalised response (MFM-223) of 41.5%. For the same compound, the normalised response (CAL-51) was 69.4%, the normalised response (CAL-120) was 87.1% and the normalised response (BT-549 [17]) was 88.9%. For the same compound, the normalised response (MDA-MB-468 [18]) was 84.2%.

In the case of C/C(=C\c1csc(C)n1)[C@@H]1C[C@@H]2O[C@]2(C)CCC[C@H](C)[C@H](O)[C@@H](C)C(=O)C(C)(C)[C@@H](O)CC(=O)N1 [Ixabepilone] (1000 nM), the normalised response (HCC1143 [10]) is reported as 120%, the normalised response (DU-4475 [11]) is reported as 101% and the normalised response (MCF-10A) is reported as 101%. For the same compound, the normalised response (MDA-MB-436) was 103%, the normalised response (CAL-85-1 [12]) was 14.6% and the normalised response (BT-474 [13]) was 58.1%. For the same compound, the normalised response (HDQ-P1 [14]) was 96.2%, the normalised response (Hs578T) was 115% and the normalised response (MDA-MB-453) was 101%. It also gave a normalised response (MDA-MB-231 [15]) of 55%, a normalised response (HCC1937 [16]) of 92.4% and a normalised response (MFM-223) of 105%. For the same compound, the normalised response (CAL-51) was 33.8%, the normalised response (CAL-120) was 99.3% and the normalised response (BT-549 [17]) was 62.7%. For the same compound, the normalised response (MDA-MB-468 [18]) was 87.1%.

CO[C@@H]1[C@H](N(C)C(=O)c2ccccc2)C[C@H]2O[C@]1(C)n1c3ccccc3c3c4c(c5c6ccccc6n2c5c31)C(=O)NC4 [Midostaurin] (1000 nM) gave a normalised response (HCC1143 [10]) of 63.8%, a normalised response (DU-4475 [11]) of 87.7% and a normalised response (MCF-10A) of 93.8%. It also gave a normalised response (MDA-MB-436) of 77.3%, a normalised response (CAL-85-1 [12]) of 92.1% and a normalised response (BT-474 [13]) of 83.7%. For the same compound, the normalised response (HDQ-P1 [14]) was 93%, the normalised response (Hs578T) was 64.2% and the normalised response (MDA-MB-453) was 107%. The normalised response (MDA-MB-231 [15]) was 61.2%, the normalised response (HCC1937 [16]) was 52.8% and the normalised response (MFM-223) was 78.8%. For the same compound, the normalised response (CAL-51) was -37.7%, the normalised response (CAL-120) was 91.7% and the normalised response (BT-549 [17]) was 54%. For the same compound, the normalised response (MDA-MB-468 [18]) was -9.58%.

Cc1cc(Nc2nc(N[C@@H](C)c3ncc(F)cn3)ncc2Cl)[nH]n1 [AZD1480] (100 nM) gave a normalised response (HCC1143 [10]) of 58.8%, a normalised response (DU-4475 [11]) of 97.6% and a normalised response (MCF-10A) of 85.5%. It also gave a normalised response (MDA-MB-436) of 101%, a normalised response (CAL-85-1 [12]) of 99.9% and a normalised response (BT-474 [13]) of 71.6%. For the same compound, the normalised response (HDQ-P1 [14]) was 97.1%, the normalised response (Hs578T) was 96.6% and the normalised response (MDA-MB-453) was 106%. The normalised response (MDA-MB-231 [15]) was 98.9%, the normalised response (HCC1937 [16]) was 100% and the normalised response (MFM-223) was 100%. It also gave a normalised response (CAL-51) of 107%, a normalised response (CAL-120) of 98.6% and a normalised response (BT-549 [17]) of 95.4%. The normalised response (MDA-MB-468 [18]) was 128%.
